Data as given in PubChem BioAssay AID1745844 (Carcinogenic Potency Database (CPDB), 2022).
Active and inactive are the calls of the source. How the calls were made is not given here.

Test system: rodent lifetime carcinogenesis bioassay, tumor incidence TD50
Assay: carcinogenic potency in animals, long-term in vivo studies, CPDB compilation (AID 1745844)

## CN(C)C(=S)S[Se](SC(=S)N(C)C)(SC(=S)N(C)C)SC(=S)N(C)C
mouse, strain B6AKF1, females, oral dosing, site: any site (literature study), lesion: several types, types named in the paper, dosed 76 weeks, study length 76 weeks
  carcinogen call: negative (inactive)
mouse, strain B6AKF1, females, oral dosing, site: liver, lesion: hepatoma, dosed 76 weeks, study length 76 weeks
  carcinogen call: negative (inactive)
mouse, strain B6AKF1, females, oral dosing, site: lung, lesion: adenoma, dosed 76 weeks, study length 76 weeks
  carcinogen call: negative (inactive)
mouse, strain B6AKF1, males, oral dosing, site: any site (literature study), lesion: several types, types named in the paper, dosed 76 weeks, study length 76 weeks
  carcinogen call: negative (inactive)
mouse, strain B6AKF1, males, oral dosing, site: liver, lesion: hepatoma, dosed 76 weeks, study length 76 weeks
  carcinogen call: negative (inactive)
mouse, strain B6AKF1, males, oral dosing, site: lung, lesion: adenoma, dosed 76 weeks, study length 76 weeks
  carcinogen call: negative (inactive)
mouse, strain B6C3F1, females, oral dosing, site: any site (literature study), lesion: one or several types, types not named, dosed 76 weeks, study length 76 weeks
  carcinogen call: negative (inactive)
mouse, strain B6C3F1, females, oral dosing, site: liver, lesion: hepatoma, dosed 76 weeks, study length 76 weeks
  carcinogen call: negative (inactive)
mouse, strain B6C3F1, females, oral dosing, site: lung, lesion: several types, types named in the paper, dosed 76 weeks, study length 76 weeks
  carcinogen call: negative (inactive)
mouse, strain B6C3F1, males, oral dosing, site: any site (literature study), lesion: several types, types named in the paper, dosed 76 weeks, study length 76 weeks
  TD50: 5.88 mg/kg/day (inactive)
mouse, strain B6C3F1, males, oral dosing, site: liver, lesion: hepatoma, dosed 76 weeks, study length 76 weeks
  TD50: 26 mg/kg/day (inactive)
mouse, strain B6C3F1, males, oral dosing, site: lung, lesion: several types, types named in the paper, dosed 76 weeks, study length 76 weeks
  carcinogen call: negative (inactive)

## O=NN(CCO)CC(O)CO (configuration not stated)
hamster, strain Syrian Golden, females, by gavage, site: trachea, lesion: adenoma, dosed 50 weeks, study length 104 weeks
  TD50: 52.7 mg/kg/day
rat, strain Fischer 344, females, in drinking water, site: liver, lesion: hepatocellular carcinoma, dosed 75 weeks, study length 120 weeks
  TD50: 11.5 mg/kg/day
rat, strain Fischer 344, females, in drinking water, site: liver, lesion: neoplastic nodule, dosed 75 weeks, study length 120 weeks
  TD50: 8.69 mg/kg/day
rat, strain Fischer 344, females, in drinking water, site: liver, lesion: several types, types named in the paper, dosed 75 weeks, study length 120 weeks
  TD50: 5.98 mg/kg/day

## COc1cc(OC)c2c3c(c(=O)oc2c1)CCC3=O
rat, strain Fischer, males, by gavage, site: liver, lesion: one or several types, types not named, dosed 52 weeks, study length 74 weeks
  carcinogen call: negative (inactive)

## COCCl
hamster, strain Syrian Golden, males, inhaled, site: lung, lesion: adenocarcinoma, dosed 113 weeks, study length 124 weeks
  TD50: 32.9 mg/kg/day
hamster, strain Syrian Golden, males, inhaled, site: several sites, sites named in the paper, lesion: several types, types named in the paper, dosed 113 weeks, study length 124 weeks
  TD50: 16.4 mg/kg/day
rat, strain Sprague-Dawley, males, inhaled, site: several sites, sites named in the paper, lesion: several types, types named in the paper, dosed 113 weeks, study length 122 weeks
  TD50: 5.5 mg/kg/day

## CC(C)(C)c1cc(C(C)(C)C)c(O)c(C(C)(C)C)c1
rat, strain Wistar, females, in feed, site: liver, lesion: one or several types, types not named, dosed 52 weeks, study length 52 weeks
  carcinogen call: negative (inactive)
rat, strain Wistar, females, in feed, site: liver, lesion: one or several types, types not named, dosed 78 weeks, study length 78 weeks
  carcinogen call: negative (inactive)
rat, strain Wistar, females, in feed, site: liver, lesion: one or several types, types not named, dosed 104 weeks, study length 104 weeks
  carcinogen call: negative (inactive)
rat, strain Wistar, males, in feed, site: liver, lesion: one or several types, types not named, dosed 52 weeks, study length 52 weeks
  carcinogen call: negative (inactive)
rat, strain Wistar, males, in feed, site: liver, lesion: one or several types, types not named, dosed 78 weeks, study length 78 weeks
  carcinogen call: negative (inactive)
rat, strain Wistar, males, in feed, site: liver, lesion: one or several types, types not named, dosed 104 weeks, study length 104 weeks
  carcinogen call: negative (inactive)

## Cl[C@@H]1OCCO[C@H]1Cl
mouse, strain Ha/ICR, females, i.p., site: lung, lesion: papillary tumor, dosed 64 weeks, study length 64 weeks
  TD50: 7.04 mg/kg/day

## CN(N)C=O
hamster, strain Syrian Golden, females, in drinking water, site: all sites, lesion: histiocytoma, malignant, dosed 102 weeks, study length 102 weeks
  TD50: 4.71 mg/kg/day
hamster, strain Syrian Golden, females, in drinking water, site: any site (literature study), lesion: several types, types named in the paper, dosed 102 weeks, study length 102 weeks
  TD50: 6.04 mg/kg/day
hamster, strain Syrian Golden, females, in drinking water, site: gall bladder, lesion: several types, types named in the paper, dosed 102 weeks, study length 102 weeks
  TD50: 29.1 mg/kg/day
hamster, strain Syrian Golden, females, in drinking water, site: liver, lesion: hepatoma, dosed 102 weeks, study length 102 weeks
  TD50: 28.3 mg/kg/day
hamster, strain Syrian Golden, females, in drinking water, site: liver, lesion: liver-cell carcinoma, dosed 102 weeks, study length 102 weeks
  TD50: 25.1 mg/kg/day
hamster, strain Syrian Golden, females, in drinking water, site: liver, lesion: several types, types named in the paper, dosed 102 weeks, study length 102 weeks
  TD50: 11.3 mg/kg/day
hamster, strain Syrian Golden, males, in drinking water, site: all sites, lesion: histiocytoma, malignant, dosed 102 weeks, study length 102 weeks
  TD50: 12.7 mg/kg/day
hamster, strain Syrian Golden, males, in drinking water, site: any site (literature study), lesion: several types, types named in the paper, dosed 102 weeks, study length 102 weeks
  TD50: 4.89 mg/kg/day
hamster, strain Syrian Golden, males, in drinking water, site: bile duct, lesion: several types, types named in the paper, dosed 102 weeks, study length 102 weeks
  TD50: 19.7 mg/kg/day
hamster, strain Syrian Golden, males, in drinking water, site: gall bladder, lesion: papillary adenoma, dosed 102 weeks, study length 102 weeks
  TD50: 42.5 mg/kg/day
hamster, strain Syrian Golden, males, in drinking water, site: gall bladder, lesion: several types, types named in the paper, dosed 102 weeks, study length 102 weeks
  TD50: 25.3 mg/kg/day
hamster, strain Syrian Golden, males, in drinking water, site: liver, lesion: hepatoma, dosed 102 weeks, study length 102 weeks
  TD50: 13.3 mg/kg/day
hamster, strain Syrian Golden, males, in drinking water, site: liver, lesion: liver-cell carcinoma, dosed 102 weeks, study length 102 weeks
  TD50: 30 mg/kg/day
hamster, strain Syrian Golden, males, in drinking water, site: liver, lesion: several types, types named in the paper, dosed 102 weeks, study length 102 weeks
  TD50: 7.55 mg/kg/day
mouse, strain Swiss albino, females, in drinking water, site: blood vessels, lesion: several types, types named in the paper, dosed 92 weeks, study length 92 weeks
  TD50: 12.2 mg/kg/day
mouse, strain Swiss albino, females, in drinking water, site: blood vessels, lesion: several types, types named in the paper, dosed 99 weeks, study length 100 weeks
  TD50: 6.04 mg/kg/day
mouse, strain Swiss albino, females, in drinking water, site: gall bladder, lesion: adenoma, dosed 65 weeks, study length 73 weeks
  TD50: 31.5 mg/kg/day
mouse, strain Swiss albino, females, in drinking water, site: gall bladder, lesion: adenoma, dosed 92 weeks, study length 92 weeks
  TD50: 39.7 mg/kg/day
mouse, strain Swiss albino, females, in drinking water, site: gall bladder, lesion: several types, types named in the paper, dosed 92 weeks, study length 92 weeks
  TD50: 31.3 mg/kg/day
mouse, strain Swiss albino, females, in drinking water, site: gall bladder, lesion: several types, types named in the paper, dosed 99 weeks, study length 100 weeks
  TD50: 57.9 mg/kg/day
mouse, strain Swiss albino, females, in drinking water, site: liver, lesion: angioma, dosed 97 weeks, study length 102 weeks
  TD50: 23.8 mg/kg/day (inactive)
mouse, strain Swiss albino, females, in drinking water, site: liver, lesion: hepatoma, benign, dosed 92 weeks, study length 92 weeks
  TD50: 17.5 mg/kg/day
mouse, strain Swiss albino, females, in drinking water, site: liver, lesion: hepatoma, benign, dosed 99 weeks, study length 100 weeks
  TD50: 24.7 mg/kg/day
mouse, strain Swiss albino, females, in drinking water, site: liver, lesion: hepatoma, dosed 65 weeks, study length 73 weeks
  TD50: 19.5 mg/kg/day
mouse, strain Swiss albino, females, in drinking water, site: liver, lesion: hepatoma, dosed 97 weeks, study length 102 weeks
  TD50: 9.23 mg/kg/day (inactive)
mouse, strain Swiss albino, females, in drinking water, site: liver, lesion: liver-cell carcinoma, dosed 65 weeks, study length 73 weeks
  TD50: 19.9 mg/kg/day
mouse, strain Swiss albino, females, in drinking water, site: liver, lesion: liver-cell carcinoma, dosed 92 weeks, study length 92 weeks
  TD50: 22.4 mg/kg/day
mouse, strain Swiss albino, females, in drinking water, site: liver, lesion: several types, types named in the paper, dosed 65 weeks, study length 73 weeks
  TD50: 10.4 mg/kg/day
mouse, strain Swiss albino, females, in drinking water, site: liver, lesion: several types, types named in the paper, dosed 92 weeks, study length 92 weeks
  TD50: 8.66 mg/kg/day
mouse, strain Swiss albino, females, in drinking water, site: lung, lesion: adenocarcinoma, dosed 97 weeks, study length 102 weeks
  TD50: 1.12 mg/kg/day
mouse, strain Swiss albino, females, in drinking water, site: lung, lesion: adenoma, dosed 97 weeks, study length 102 weeks
  TD50: 1.5 mg/kg/day
mouse, strain Swiss albino, females, in drinking water, site: lung, lesion: several types, types named in the paper, dosed 65 weeks, study length 73 weeks
  TD50: 6.44 mg/kg/day
mouse, strain Swiss albino, females, in drinking water, site: lung, lesion: several types, types named in the paper, dosed 92 weeks, study length 92 weeks
  TD50: 2.16 mg/kg/day
mouse, strain Swiss albino, females, in drinking water, site: lung, lesion: several types, types named in the paper, dosed 97 weeks, study length 102 weeks
  TD50: 0.745 mg/kg/day
mouse, strain Swiss albino, females, in drinking water, site: lung, lesion: several types, types named in the paper, dosed 99 weeks, study length 100 weeks
  TD50: 0.921 mg/kg/day
mouse, strain Swiss albino, males, in drinking water, site: bile duct, lesion: cholangioma, dosed 82 weeks, study length 82 weeks
  TD50: 12.4 mg/kg/day
mouse, strain Swiss albino, males, in drinking water, site: bile duct, lesion: several types, types named in the paper, dosed 65 weeks, study length 72 weeks
  TD50: 36.2 mg/kg/day
mouse, strain Swiss albino, males, in drinking water, site: blood vessels, lesion: several types, types named in the paper, dosed 96 weeks, study length 100 weeks
  TD50: 3.47 mg/kg/day
mouse, strain Swiss albino, males, in drinking water, site: forestomach, lesion: squamous-cell papilloma, dosed 97 weeks, study length 102 weeks
  TD50: 11.2 mg/kg/day (inactive)
mouse, strain Swiss albino, males, in drinking water, site: gall bladder, lesion: adenoma, dosed 65 weeks, study length 72 weeks
  TD50: 38 mg/kg/day
mouse, strain Swiss albino, males, in drinking water, site: gall bladder, lesion: adenoma, dosed 82 weeks, study length 82 weeks
  TD50: 15.2 mg/kg/day
mouse, strain Swiss albino, males, in drinking water, site: gall bladder, lesion: adenoma, dosed 96 weeks, study length 100 weeks
  TD50: 9.88 mg/kg/day
mouse, strain Swiss albino, males, in drinking water, site: gall bladder, lesion: several types, types named in the paper, dosed 96 weeks, study length 100 weeks
  TD50: 9.1 mg/kg/day
mouse, strain Swiss albino, males, in drinking water, site: liver, lesion: several types, types named in the paper, dosed 65 weeks, study length 72 weeks
  TD50: 16.8 mg/kg/day
mouse, strain Swiss albino, males, in drinking water, site: liver, lesion: several types, types named in the paper, dosed 82 weeks, study length 82 weeks
  TD50: 1.03 mg/kg/day
mouse, strain Swiss albino, males, in drinking water, site: liver, lesion: several types, types named in the paper, dosed 96 weeks, study length 100 weeks
  TD50: 5.47 mg/kg/day
mouse, strain Swiss albino, males, in drinking water, site: lung, lesion: adenocarcinoma, dosed 97 weeks, study length 102 weeks
  TD50: 2.48 mg/kg/day
mouse, strain Swiss albino, males, in drinking water, site: lung, lesion: adenoma, dosed 97 weeks, study length 102 weeks
  TD50: 1.3 mg/kg/day
mouse, strain Swiss albino, males, in drinking water, site: lung, lesion: several types, types named in the paper, dosed 65 weeks, study length 72 weeks
  TD50: 14.2 mg/kg/day
mouse, strain Swiss albino, males, in drinking water, site: lung, lesion: several types, types named in the paper, dosed 82 weeks, study length 82 weeks
  TD50: 1.87 mg/kg/day
mouse, strain Swiss albino, males, in drinking water, site: lung, lesion: several types, types named in the paper, dosed 96 weeks, study length 100 weeks
  TD50: 1.72 mg/kg/day
mouse, strain Swiss albino, males, in drinking water, site: lung, lesion: several types, types named in the paper, dosed 97 weeks, study length 102 weeks
  TD50: 0.865 mg/kg/day
mouse, strain Swiss albino, males, in drinking water, site: seminal vesicle, lesion: adenoma, dosed 82 weeks, study length 82 weeks
  TD50: 20.7 mg/kg/day (inactive)
mouse, strain Swiss albino, males, in drinking water, site: stomach, glandular, lesion: polypoid adenoma, dosed 97 weeks, study length 102 weeks
  TD50: 3.43 mg/kg/day (inactive)
mouse, strain Swiss albino, males, in drinking water, site: subcutaneous tissue, lesion: fibrosarcoma, dosed 97 weeks, study length 102 weeks
  TD50: 2.6 mg/kg/day (inactive)
